Experimental data as given in patent US11066445B2, “Immunomodulators acting as antagonists of PD-1” (Bristol-Myers Squibb Company, priority 2017, dated 2021).
Starred links: 1 amine or outer side, 2 acyl side, 3 side chain; linkers in the order of their positions; H or OH if unused. Positions of bridges follow the written chain, without caps; N, C: chain ends. Non-standard residues stand in square brackets, D forms with d. Residues, ends and D or L forms follow the SMILES beside them. *: point of attachment. X3 = O=C(O)CCCCCCCCCCCCCCCCC(=O)N[C@@H](CCC(=O)NCCCOCCOCCOCCCN*)C(=O)O; Trp(1-CH2CONHSO2Me) = CS(=O)(=O)NC(=O)Cn1cc(C[C@H](N)C(=O)O)c2ccccc21; X1 = O=C(O)CCCCCCCCCCCCCCC(=O)N[C@@H](CCC(=O)NCCCOCCOCCOCCCN*)C(=O)O; Trp(7-aza,1-CH2COOH) = N[C@@H](Cc1cn(CC(=O)O)c2ncccc12)C(=O)O; Trp(1-CH2CO2Me) = COC(=O)Cn1cc(C[C@H](N)C(=O)O)c2ccccc21; X2 = O=C(O)Cn1cc(C[C@@H](N[*:1])C(=O)[*:2])c2cccnc21; X4 = O=C(O)Cn1nc(C[C@H](N[*:1])C(=O)[*:2])c2ccccc21; Hyp = O=C(O)[C@@H]1C[C@@H](O)CN1; NMeNle = CCCC[C@H](NC)C(=O)O; NMeA = CN[C@@H](C)C(=O)O; Dab = NCC[C@H](N)C(=O)O; Dap = NC[C@H](N)C(=O)O

biological target: T1, PD-1-Ig binding to PD-L1-TVMV-His (PD-L1-His) (Homo sapiens, UniProt Q9NZQ7); assay: PD-1/PD-L1 Homogenous Time-Resolved Fluorescence (HTRF) binding assay; details: PD-1-Ig (20 nM) / PD-L1-His (10 nM); numeric values; read-out: LE HTRF hPD1 hPDL1 IC50
T1 construct: hPDL1(19-239)-TVMV-His; TVMV protease cleavage site (C); made in house; host or cells: HEK293T cells
T1 sequence (Q9NZQ7 with tags, fused parts or gaps): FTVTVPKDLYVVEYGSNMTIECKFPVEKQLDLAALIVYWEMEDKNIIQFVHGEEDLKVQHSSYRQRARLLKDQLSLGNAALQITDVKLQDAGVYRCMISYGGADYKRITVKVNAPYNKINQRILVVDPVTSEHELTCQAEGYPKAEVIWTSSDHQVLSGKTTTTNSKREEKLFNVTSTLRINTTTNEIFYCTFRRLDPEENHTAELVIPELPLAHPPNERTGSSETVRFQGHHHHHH
Excerpt: Methods for Testing the Ability of Macrocyclic Peptides to Compete for the Binding of Pd-1 to Pd-L1 Using Homogenous Time-Resolved Fluorescence (HTRF) Binding Assays
The ability of the macrocyclic peptides of the present disclosure to bind to PD-L1 was investigated using a PD-1/PD-L1 Homogenous Time-Resolved Fluorescence (HTRF) binding assay.
Homogenous Time-Resolved Fluorescence (HTRF) Assays of Binding of Soluble PD-1 to Soluble PD-L1. Soluble PD-1 and soluble PD-L1 refers to proteins with carboxyl-end truncations that remove the transmembrane-spanning regions and are fused to heterologous sequences, specifically the Fc portion of the human immunoglobuling G sequence (Ig) or the hexahistidine epitope tag (His). All binding studies were performed in an HTRF assay buffer consisting of dPBS supplemented with 0.1% (w/v) bovine serum albumin and 0.05% (v/v) Tween-20. For the PD-1-Ig/PD-L1-His binding assay, inhibitors were pre-incubated with PD-L1-His (10 nM final) for 15 m in 4 μl of assay buffer, followed by addition of PD-1-Ig (20 nM final) in 1 μl of assay buffer and further incubation for 15 m. PD-L1 fusion proteins from either human, cynomologous macaques, mouse, or other species were used. HTRF detection was achieved using europium crypate-labeled anti-Ig monoclonal antibody (1 nM final) and allophycocyanin (APC) labeled anti-His monoclonal antibody (20 nM final). Antibodies were diluted in HTRF detection buffer and 5 μl was dispensed on top of binding reaction. The reaction was allowed to equilibrate for 30 minutes and signal (665 nm/620 nm ratio) was obtained using an EnVision fluorometer. Additional binding assays were established between PD-1-Ig/PD-L2-His (20 and 5 nM, respectively), CD80-His/PD-L1-Ig (100 and 10 nM, respectively) and CD80-His/CTLA4-Ig (10 and 5 nM, respectively). Binding/competition studies between biotinylated Compound No. 71 and human PD-L1-His were performed as follows. Macrocyclic peptide inhibitors were pre-incubated with PD-L1-His (10 nM final) for 60 minutes in 4 μl of assay buffer followed by addition of biotinylated Compound No. 71 (0.5 nM final) in 1 μl of assay buffer. Binding was allowed to equilibrate for 30 minutes followed by addition of europium crypated labeled Streptavidin (2.5 pM final) and APC-labeled anti-His (20 nM final) in 5 μl of HTRF buffer. The reaction was allowed to equilibrate for 30 m and signal (665 nm/620 nm ratio) was obtained using an EnVision fluorometer.
Recombinant Proteins. Carboxyl-truncated human PD-1 (amino acids 25-167) with a C-terminal human Ig epitope tag [hPD-1 (25-167)-3S-IG] and human PD-L1 (amino acids 18-239) with a C-terminal His epitope tag [hPD-L1(19-239)-tobacco vein mottling virus protease cleavage site (TVMV)-His] were expressed in HEK293T cells and purified sequentially by recombinant Protein A affinity chromatography and size exclusion chromatography. Human PD-L2-His (Sino Biologicals), CD80-His (Sino Biologicals), CTLA4-Ig (RnD Systems) were all obtained through commercial sources.
Ranges are as follows: A=0.010-0.060 μM; B=0.0011-0.009 μM; C=0.0003-0.0010 μM.

CCCC[C@H]1C(=O)N(C)[C@@H](CCCC)C(=O)N[C@@H](CC(C)C)C(=O)N[C@H](C(=O)NCC(=O)N[C@@H](CC(=O)NCCCOCCOCCOCCCNC(=O)CC[C@H](NC(=O)CCCCCCCCCCCCCCCCC(=O)O)C(=O)O)C(=O)O)CSCC(=O)N[C@@H](Cc2ccc(O)cc2)C(=O)N(C)[C@@H](C)C(=O)N[C@@H](CC(N)=O)C(=O)N2CCC[C@H]2C(=O)N[C@@H](CN)C(=O)N[C@@H](CC(C)C)C(=O)N2C[C@H](O)C[C@H]2C(=O)N[C@@H](Cc2c[nH]c3ccccc23)C(=O)N[C@@H](CCN)C(=O)N[C@@H](Cc2cn(CC(=O)NS(C)(=O)=O)c3ccccc23)C(=O)N1C [Example 1] ({CH2CO}-Y[NMeA]NP[Dap]L[Hyp]W[Dab][Trp(1-CH2CONHSO2Me)][NMeNle][NMeNle]LCGD(X3)-OH; thioether N-14) showed an IC50 of 1.2 nM.

same assay, conditions: PD-1-Ig (20 nM) / PD-L1-His (10 nM); range classes; read-out: LE HTRF hPD1 hPDL1 IC50

CCCC[C@H]1C(=O)N(C)[C@@H](CCCC)C(=O)N[C@@H](CC(C)C)C(=O)N[C@H](C(=O)NCC(=O)N[C@@H](CC(=O)NCCCOCCOCCOCCCNC(=O)CC[C@H](NC(=O)CCCCCCCCCCCCCCC(=O)O)C(=O)O)C(=O)O)CSCC(=O)N[C@@H](Cc2ccc(O)cc2)C(=O)N(C)[C@@H](C)C(=O)N[C@@H](CC(N)=O)C(=O)N2CCC[C@H]2C(=O)N[C@@H](CN)C(=O)N[C@@H](CC(C)C)C(=O)N2C[C@H](O)C[C@H]2C(=O)N[C@@H](Cc2c[nH]c3ccccc23)C(=O)N[C@@H](CCN)C(=O)N[C@@H](Cc2cn(CC(=O)OC)c3ccccc23)C(=O)N1C [Example 16] ({CH2CO}-Y[NMeA]NP[Dap]L[Hyp]W[Dab][Trp(1-CH2CO2Me)][NMeNle][NMeNle]LCGD(X1)-OH; thioether N-14) and CCCC[C@H]1C(=O)N(C)[C@@H](CCCC)C(=O)N[C@@H](CC(C)C)C(=O)N[C@H](C(=O)NCC(=O)N[C@@H](CC(=O)NCCCOCCOCCOCCCNC(=O)CC[C@H](NC(=O)CCCCCCCCCCCCCCC(=O)O)C(=O)O)C(=O)O)CSCC(=O)N[C@@H](Cc2ccc(O)cc2)C(=O)N(C)[C@@H](C)C(=O)N[C@@H](CC(N)=O)C(=O)N2CCC[C@H]2C(=O)N[C@@H](CN)C(=O)N[C@@H](CC(C)C)C(=O)N2C[C@H](O)C[C@H]2C(=O)N[C@@H](Cc2c[nH]c3ccccc23)C(=O)N[C@@H](CCN)C(=O)N[C@@H](Cc2nn(CC(=O)O)c3ccccc23)C(=O)N1C [Example 17] ({CH2CO}-Y[NMeA]NP[Dap]L[Hyp]W[Dab][X4][NMeNle][NMeNle]LCGD(X1)-OH; thioether N-14) fall in the same range of IC50: 1.1 to 9 nM for the first, 1.1 to 9 nM for the second.

CCCC[C@H]1C(=O)N(C)[C@@H](CCCC)C(=O)N[C@@H](CC(C)C)C(=O)N[C@H](C(=O)N[C@@H](Cc2cn(CCOCCOCCOCCOCCOCCOCCOCCOCCOCCOCCOCCNC(=O)CC[C@H](NC(=O)CCCCCCCCCCCCCCCCC(=O)O)C(=O)O)nn2)C(=O)O)CSCC(=O)N[C@@H](Cc2ccc(O)cc2)C(=O)N(C)[C@@H](C)C(=O)N[C@@H](CC(N)=O)C(=O)N2CCC[C@H]2C(=O)N[C@@H](CN)C(=O)N[C@@H](CC(C)C)C(=O)N2C[C@H](O)C[C@H]2C(=O)N[C@@H](Cc2c[nH]c3ccccc23)C(=O)N[C@@H](CCN)C(=O)N[C@@H](Cc2nn(CC(=O)O)c3ccc(OC)cc23)C(=O)N1C [Example 24] and CCCC[C@H]1C(=O)N(C)[C@@H](CCCC)C(=O)N[C@@H](CC(C)C)C(=O)N[C@H](C(=O)NCC(=O)N[C@@H](Cc2cn(CCOCCOCCOCCOCCOCCOCCOCCOCCOCCOCCOCCNC(=O)CC[C@H](NC(=O)CCCCCCCCCCCCCCCCC(=O)O)C(=O)O)nn2)C(=O)O)CSCC(=O)N[C@@H](Cc2ccc(O)cc2)C(=O)N(C)[C@@H](C)C(=O)N[C@@H](CC(N)=O)C(=O)N2CCC[C@H]2C(=O)N[C@@H](CN)C(=O)N[C@@H](CC(C)C)C(=O)N2C[C@H](O)C[C@H]2C(=O)N[C@@H](Cc2c[nH]c3ccccc23)C(=O)N[C@@H](CCN)C(=O)N[C@@H](Cc2nn(CC(=O)O)c3ccccc23)C(=O)N1C [Example 29] fall in the same range of IC50: 0.3 to 1 nM for the first, 0.3 to 1 nM for the second.

Compared with CCCC[C@H]1C(=O)N(C)[C@@H](CCCC)C(=O)N[C@@H](CC(C)C)C(=O)N[C@H](C(=O)NCC(=O)N[C@@H](CC(=O)NCCCOCCOCCOCCCNC(=O)CC[C@H](NC(=O)CCCCCCCCCCCCCCCCC(=O)O)C(=O)O)C(=O)O)CSCC(=O)N[C@@H](Cc2ccc(O)cc2)C(=O)N(C)[C@@H](C)C(=O)N[C@@H](CC(N)=O)C(=O)N2CCC[C@H]2C(=O)N[C@@H](CN)C(=O)N[C@@H](CC(C)C)C(=O)N2C[C@H](O)C[C@H]2C(=O)N[C@@H](Cc2c[nH]c3ccccc23)C(=O)N[C@@H](CCN)C(=O)N[C@H](Cc2cn(CC(=O)O)c3ncccc23)C(=O)N1C [Example 14] ({CH2CO}-Y[NMeA]NP[Dap]L[Hyp]W[Dab][X2][NMeNle][NMeNle]LCGD(X3)-OH; thioether N-14), CCCC[C@H]1C(=O)N(C)[C@@H](CCCC)C(=O)N[C@@H](CC(C)C)C(=O)N[C@H](C(=O)NCC(=O)N[C@@H](CC(=O)NCCCOCCOCCOCCCNC(=O)CC[C@H](NC(=O)CCCCCCCCCCCCCCC(=O)O)C(=O)O)C(=O)O)CSCC(=O)N[C@@H](Cc2ccc(O)cc2)C(=O)N(C)[C@@H](C)C(=O)N[C@@H](CC(N)=O)C(=O)N2CCC[C@H]2C(=O)N[C@@H](CN)C(=O)N[C@@H](CC(C)C)C(=O)N2C[C@H](O)C[C@H]2C(=O)N[C@@H](Cc2c[nH]c3ccccc23)C(=O)N[C@@H](CCN)C(=O)N[C@@H](Cc2cn(CC(=O)O)c3ncccc23)C(=O)N1C [Example 19] ({CH2CO}-Y[NMeA]NP[Dap]L[Hyp]W[Dab][Trp(7-aza,1-CH2COOH)][NMeNle][NMeNle]LCGD(X1)-OH; thioether N-14) is lower in IC50: 10 to 60 nM for the first, 1.1 to 9 nM for the second. The second is the more potent here.

First: CCCC[C@H]1C(=O)N(C)[C@@H](CCCC)C(=O)N[C@@H](CC(C)C)C(=O)N[C@H](C(=O)NCC(=O)N[C@@H](Cc2cn(CCOCCOCCOCCOCCOCCOCCOCCOCCOCCOCCOCCNC(=O)CC[C@H](NC(=O)CCCCCCCCCCCCCCCCC(=O)O)C(=O)O)nn2)C(=O)O)CSCC(=O)N[C@@H](Cc2ccc(O)cc2)C(=O)N(C)[C@@H](C)C(=O)N[C@@H](CC(N)=O)C(=O)N2CCC[C@H]2C(=O)N[C@@H](CN)C(=O)N[C@@H](CC(C)C)C(=O)N2C[C@H](O)C[C@H]2C(=O)N[C@@H](Cc2c[nH]c3ccccc23)C(=O)N[C@@H](CCN)C(=O)N[C@@H](Cc2nn(CC(=O)OC)c3ccccc23)C(=O)N1C [Example 23]
Second: CCCC[C@H]1C(=O)N(C)[C@@H](CCCC)C(=O)N[C@@H](CC(C)C)C(=O)N[C@H](C(=O)NCC(=O)N[C@@H](Cc2cn(CCOCCOCCOCCOCCOCCOCCOCCOCCOCCOCCOCCNC(=O)CC[C@H](NC(=O)CCCCCCCCCCCCCCCCC(=O)O)C(=O)O)nn2)C(=O)O)CSCC(=O)N[C@@H](Cc2ccc(O)cc2)C(=O)N(C)[C@@H](C)C(=O)N[C@@H](CC(N)=O)C(=O)N2CCC[C@H]2C(=O)N[C@@H](CN)C(=O)N[C@@H](CC(C)C)C(=O)N2C[C@H](O)C[C@H]2C(=O)N[C@@H](Cc2c[nH]c3ccccc23)C(=O)N[C@@H](CCN)C(=O)N[C@@H](Cc2cn(CC(=O)NS(C)(=O)=O)c3ccccc23)C(=O)N1C [Example 30]
The IC50 of the first is lower: 0.3 to 1 nM for the first, 1.1 to 9 nM for the second.

CCCC[C@H]1C(=O)N(C)[C@@H](CCCC)C(=O)N[C@@H](CC(C)C)C(=O)N[C@H](C(=O)NCC(=O)N[C@@H](Cc2cn(CCOCCOCCOCCOCCOCCOCCOCCOCCOCCOCCOCCNC(=O)CCC(NC(=O)CCCCCCCCCCCCCCCCC(=O)O)C(=O)O)nn2)C(=O)O)CSCC(=O)N[C@@H](Cc2ccc(O)cc2)C(=O)N(C)[C@@H](C)C(=O)N[C@@H](CC(N)=O)C(=O)N2CCC[C@H]2C(=O)N[C@@H](CN)C(=O)N[C@@H](CC(C)C)C(=O)N2C[C@H](O)C[C@H]2C(=O)N[C@@H](Cc2c[nH]c3ccccc23)C(=O)N[C@@H](CCN)C(=O)N[C@@H](Cc2cn(CC(=O)O)c3cccnc23)C(=O)N1C (stereo partly shown) [Example 28] gave an IC50 of 10 to 60 nM.
